Laboratory results as given in PubChem BioAssay (NCI).
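Interpolation was linear, between the two tested concentrations surrounding the appropriate level; five concentrations were tested over 48 hours in 96-well plates. TGI denotes the concentration required for complete inhibition of growth.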

Key:
Assay in all cases: growth of human tumour cells (NCI), 48 h
BT-549 breast = tested on: BT-549 breast
NCI-H460 lung = tested on: NCI-H460 lung
NCI-H226 lung = tested on: NCI-H226 lung
SK-OV-3 ovarian = tested on: SK-OV-3 ovarian
SF-295 CNS = tested on: SF-295 CNS
ACHN renal = tested on: ACHN renal
COLO 205 colon = tested on: COLO 205 colon
UO-31 renal = tested on: UO-31 renal
OVCAR-8 ovarian = tested on: OVCAR-8 ovarian
K-562 leukemia = tested on: K-562 leukemia
HCT-15 colon = tested on: HCT-15 colon
UACC-62 melanoma = tested on: UACC-62 melanoma
HT29 colon = tested on: HT29 colon
CAKI-1 renal = tested on: CAKI-1 renal
DU-145 prostate = tested on: DU-145 prostate
MALME-3M melanoma = tested on: MALME-3M melanoma
SNB-19 CNS = tested on: SNB-19 CNS
OVCAR-5 ovarian = tested on: OVCAR-5 ovarian
HS 578T breast = tested on: HS 578T breast
SF-539 CNS = tested on: SF-539 CNS
T-47D breast = tested on: T-47D breast
SK-MEL-2 melanoma = tested on: SK-MEL-2 melanoma
MDA-N = tested on: MDA-N
UACC-257 melanoma = tested on: UACC-257 melanoma
NCI-H23 lung = tested on: NCI-H23 lung
HCT-116 colon = tested on: HCT-116 colon
A498 renal = tested on: A498 renal
LOX IMVI melanoma = tested on: LOX IMVI melanoma
RXF 393 renal = tested on: RXF 393 renal
SK-MEL-5 melanoma = tested on: SK-MEL-5 melanoma
A549 NSCLC = tested on: A549 NSCLC
HOP-62 NSCLC = tested on: HOP-62 NSCLC
SR leukemia = tested on: SR leukemia
NCI-H522 lung = tested on: NCI-H522 lung
M14 melanoma = tested on: M14 melanoma
MCF7 breast = tested on: MCF7 breast
SW-620 colon = tested on: SW-620 colon
786-0 renal = tested on: 786-0 renal
HL-60(TB) leukemia = tested on: HL-60(TB) leukemia
SN12C renal = tested on: SN12C renal
MOLT-4 leukemia = tested on: MOLT-4 leukemia
NCI/ADR-RES ovarian = tested on: NCI/ADR-RES ovarian
KM12 colon = tested on: KM12 colon
CCRF-CEM leukemia = tested on: CCRF-CEM leukemia
TK-10 renal = tested on: TK-10 renal
OVCAR-3 ovarian = tested on: OVCAR-3 ovarian
HOP-92 NSCLC = tested on: HOP-92 NSCLC
PC-3 prostate = tested on: PC-3 prostate
SK-MEL-28 melanoma = tested on: SK-MEL-28 melanoma
IGROV1 ovarian = tested on: IGROV1 ovarian
OVCAR-4 ovarian = tested on: OVCAR-4 ovarian
SNB-75 CNS = tested on: SNB-75 CNS
MDA-MB-231 breast = tested on: MDA-MB-231 breast
EKVX NSCLC = tested on: EKVX NSCLC
RPMI-8226 leukemia = tested on: RPMI-8226 leukemia
MDA-MB-435 = tested on: MDA-MB-435
SF-268 CNS = tested on: SF-268 CNS
U251 CNS = tested on: U251 CNS
HCC-2998 colon = tested on: HCC-2998 colon
DMS 114 small cell lung = tested on: DMS 114 small cell lung
XF 498 CNS = tested on: XF 498 CNS
M19-MEL melanoma = tested on: M19-MEL melanoma
KM20L2 colon = tested on: KM20L2 colon
LXFL 529 NSCLC = tested on: LXFL 529 NSCLC
HOP-18 NSCLC = tested on: HOP-18 NSCLC

Cc1nn2c(=O)c([N+](=O)[O-])c(/C=C/c3ccccc3)nc2s1
TGI (BT-549 breast): 7.86 µM | TGI (NCI-H460 lung): 29 µM | TGI (NCI-H226 lung): 21.1 µM | TGI (SK-OV-3 ovarian): > 40.5 µM | TGI (SF-295 CNS): > 100 µM | TGI (ACHN renal): 74.9 µM | TGI (COLO 205 colon): 28.8 µM | TGI (UO-31 renal): > 54 µM | TGI (OVCAR-8 ovarian): 5.26 µM | TGI (K-562 leukemia): > 26.7 µM | TGI (HCT-15 colon): 12.3 µM | TGI (UACC-62 melanoma): 26.9 µM | TGI (HT29 colon): 7.83 µM | TGI (CAKI-1 renal): > 100 µM | TGI (DU-145 prostate): > 100 µM | TGI (MALME-3M melanoma): > 71.7 µM | TGI (SNB-19 CNS): > 90.8 µM | TGI (OVCAR-5 ovarian): > 100 µM | TGI (HS 578T breast): > 100 µM | TGI (SF-539 CNS): 5.89 µM | TGI (T-47D breast): > 100 µM | TGI (SK-MEL-2 melanoma): 12.4 µM | TGI (MDA-N): 6.72 µM | TGI (UACC-257 melanoma): > 100 µM | TGI (NCI-H23 lung): > 100 µM | TGI (HCT-116 colon): 15.4 µM | TGI (A498 renal): 59 µM | TGI (LOX IMVI melanoma): 3.98 µM | TGI (RXF 393 renal): 7.32 µM | TGI (SK-MEL-5 melanoma): 11.2 µM | TGI (A549 NSCLC): > 79.1 µM | TGI (HOP-62 NSCLC): > 72 µM | TGI (SR leukemia): 6.52 µM | TGI (NCI-H522 lung): 12 µM | TGI (M14 melanoma): > 53.9 µM | TGI (MCF7 breast): 8.86 µM | TGI (SW-620 colon): > 51.4 µM | TGI (786-0 renal): > 100 µM | TGI (HL-60(TB) leukemia): 5.61 µM | TGI (SN12C renal): > 100 µM | TGI (MOLT-4 leukemia): 20.8 µM | TGI (NCI/ADR-RES ovarian): > 53 µM | TGI (KM12 colon): 11 µM | TGI (CCRF-CEM leukemia): 7.65 µM | TGI (TK-10 renal): 41.3 µM | TGI (OVCAR-3 ovarian): 26.5 µM | TGI (HOP-92 NSCLC): > 100 µM | TGI (PC-3 prostate): > 100 µM | TGI (SK-MEL-28 melanoma): 64.2 µM | TGI (IGROV1 ovarian): > 67.8 µM | TGI (OVCAR-4 ovarian): > 100 µM | TGI (SNB-75 CNS): 20.3 µM | TGI (MDA-MB-231 breast): > 100 µM | TGI (EKVX NSCLC): > 29.8 µM | TGI (RPMI-8226 leukemia): 6.84 µM | TGI (MDA-MB-435): 5.06 µM | TGI (SF-268 CNS): > 100 µM | TGI (U251 CNS): 7.99 µM | TGI (HCC-2998 colon): 43.1 µM

CS(=O)(=O)CC1=Nc2nnc(CCCCCCCc3nnc4n3C(=O)C(CS(C)(=O)=O)=N4)n2C1=O
TGI (NCI-H460 lung): > 100 µM | TGI (NCI-H226 lung): > 100 µM | TGI (SK-OV-3 ovarian): > 100 µM | TGI (SF-295 CNS): > 100 µM | TGI (DMS 114 small cell lung): > 100 µM | TGI (ACHN renal): > 100 µM | TGI (COLO 205 colon): > 100 µM | TGI (UO-31 renal): > 100 µM | TGI (OVCAR-8 ovarian): > 100 µM | TGI (K-562 leukemia): > 100 µM | TGI (HCT-15 colon): > 100 µM | TGI (UACC-62 melanoma): > 100 µM | TGI (HT29 colon): > 100 µM | TGI (CAKI-1 renal): > 100 µM | TGI (MALME-3M melanoma): > 100 µM | TGI (SNB-19 CNS): > 100 µM | TGI (OVCAR-5 ovarian): > 100 µM | TGI (XF 498 CNS): > 100 µM | TGI (SF-539 CNS): > 100 µM | TGI (UACC-257 melanoma): > 100 µM | TGI (NCI-H23 lung): > 100 µM | TGI (HCT-116 colon): > 100 µM | TGI (A498 renal): > 100 µM | TGI (LOX IMVI melanoma): > 100 µM | TGI (RXF 393 renal): > 100 µM | TGI (M19-MEL melanoma): > 100 µM | TGI (SK-MEL-5 melanoma): > 100 µM | TGI (A549 NSCLC): > 100 µM | TGI (HOP-62 NSCLC): > 100 µM | TGI (SR leukemia): > 100 µM | TGI (NCI-H522 lung): > 100 µM | TGI (M14 melanoma): > 100 µM | TGI (SW-620 colon): > 100 µM | TGI (786-0 renal): > 100 µM | TGI (HL-60(TB) leukemia): > 100 µM | TGI (SN12C renal): > 100 µM | TGI (MOLT-4 leukemia): > 100 µM | TGI (KM20L2 colon): > 100 µM | TGI (KM12 colon): > 100 µM | TGI (CCRF-CEM leukemia): > 100 µM | TGI (LXFL 529 NSCLC): > 100 µM | TGI (TK-10 renal): > 100 µM | TGI (OVCAR-3 ovarian): > 100 µM | TGI (HOP-92 NSCLC): > 100 µM | TGI (HOP-18 NSCLC): > 100 µM | TGI (SK-MEL-28 melanoma): > 100 µM | TGI (IGROV1 ovarian): > 100 µM | TGI (SNB-75 CNS): > 100 µM | TGI (EKVX NSCLC): > 100 µM | TGI (RPMI-8226 leukemia): > 100 µM | TGI (SF-268 CNS): > 100 µM | TGI (U251 CNS): > 100 µM | TGI (HCC-2998 colon): > 100 µM
